Assay type in all cases: cell-based
One test has as its system A549 cells. The test can be described thus: Toxicity to human A549 cells. The note with it: human A549 cells; read-out: A549 cell IC50.
In test [1] the test system is Acanthamoeba healyi cysts. Description: Encystation drug susceptibility / excystation viability assay, 30 day recovery, A. healyi cysts. As to conditions: 720 h, minimum cysticidal concentration, no recovery up to 30 days, read-out: A. healyi 30 day MCC.
For test [2], the system named is Acanthamoeba culbertsoni (ATCC30171) cysts. The test can be described thus: Encystation drug susceptibility / excystation viability assay, 30 day recovery, A. culbertsoni cysts. As to conditions: ATCC30171, 720 h, minimum cysticidal concentration, no recovery up to 30 days, read-out: A. culbertsoni 30 day MCC.
In test [3] the test system is Acanthamoeba castellanii (ATCC50370) cysts. The test can be described thus: Encystation drug susceptibility / excystation viability assay, 30 day recovery, A. castellanii cysts. The note with it: ATCC50370, 720 h, minimum cysticidal concentration, no recovery up to 30 days, read-out: A. castellanii 30 day MCC.
For test [4], the system named is Acanthamoeba castellanii trophozoites. Description: Activity against Acanthamoeba castellanii trophozoites. The note with it: read-out: A. cactellanii Trophozoite IC50.
The subject of another test is Acanthamoeba cysts. The test can be described thus: 30 day cysticidal studies, species not given. The procedure: As cells were removed during the 5× media changes for the 30 day time point at concentrations of drugs that allowed excystation, only qualitative, microscopic analysis was performed.

Consider `N=C(NCCCCCCNC(=N)NC(=N)Nc1ccc(Cl)cc1)NC(=N)Nc1ccc(Cl)cc1` [Chlorhexidine, chlorhexidine, reference compound], for which the IC50 in the test with A549 cells was found to be 3080 nM; in test [4], 1010 nM. In addition, the MCC in test [1], in test [2] and in test [3] was 100 µM each time. For the same compound, in the test with Acanthamoeba cysts (in words), the “cysticidal activity over 30 day period” value is reported as “little cysticidal activity”. Further, the “selectivity index (SI)” value with Acanthamoeba cysts (text b496, A549 IC50 versus 30 day MCC) worked out at 0.03.

The values above are taken from patent publication US12433872B2, “Treatment of Acanthamoeba or Balamuthia trophozoites and/or cysts” (GEORGIA STATE UNIVERSITY RESEARCH FOUNDATION, INC., priority 2018, dated 2025).
